For data set [1], the system named is larvae of the mustard beetle (Phaedon cochleariae). Description: Phaedon larvae test (cabbage leaves dipped). The format is in vivo. In short, it runs like this: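 Cabbage (Brassica oleracea) leaves dipped in compound emulsion diluted in water to the test concentration, then infested with Phaedon cochleariae larvae while still moist. After the set period, % kill is scored (100% = all larvae dead, 0% = none).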

For data set [2], the system named is caterpillars of the army worm (Spodoptera frugiperda). The data set can be described thus: Spodoptera frugiperda test (cabbage leaves dipped). The format is in vivo. The protocol:
(§1) [table] To produce a suitable preparation of active compound, 1 part by weight of active compound is mixed with the stated amount of solvent and the stated amount of emulsifier, and the concentrate is diluted with emulsifier-containing water to the desired concentration. Cabbage leaves (Brassica oleracea) are treated by being dipped into the active compound preparation of the desired concentration and populated with caterpillars of the army worm (Spodoptera frugiperda) while the leaves are still moist. After the desired period of time, the kill in % is determined. 100% means that all caterpillars have been killed; 0% means that none of the caterpillars have been killed.

Data set [3] relates to caterpillars of the diamond back moth (Plutella xylostella). The data set can be described thus: Plutella test. The format is in vivo. The procedure:
as §1, with “amounts” for “amount”, “and” for “and the stated amount of”, “diamond back moth (Plutella xylostella)” for “army worm (Spodoptera frugiperda)”

For data set [4], the system named is common spidermite (Tetranychus urticae). Description: Tetranychus test. The format is in vivo. The following applies: 500 ppm, spray, Phaseolus vulgaris disks. The procedure:
(§2) To produce a suitable preparation of active compound, 1 part by weight of active compound is mixed with the stated amounts of solvent and emulsifier, and the concentrate is diluted with emulsifier-containing water to the desired concentration.
Disks of beans (Phaseolus vulgaris), which are infested by all stages of the common spidermite (Tetranychus urticae) are sprayed with an active compound preparation of the desired concentration.
After the desired period of time, the effect in % is determined. 100% means that all spidermites have been killed; 0% means that none of the spidermites have been killed.

In data set [5] the test system is caterpillars of the diamond back moth (Plutella xylostella, resistant strain). The data set can be described thus: Plutella test; resistant strain. The class given is in vivo. The procedure: as §2
Cabbage leaves (Brassica oleracea) are treated by being dipped into the active compound preparation of the desired concentration and populated with caterpillars of the diamond back moth (Plutella xylostella, resistant strain) while the leaves are still moist.
After the desired period of time, the kill in % is determined. 100% means that all caterpillars have been killed; 0% means that none of the caterpillars have been killed.

The nature of data set [6]: logP determination by HPLC on reversed-phase column (C 18), EEC Directive 79/831 Annex V.A8. The settings on record: reversed-phase C 18, 43° C., acid range (0.1% aqueous phosphoric acid, acetonitrile), marked a). The format is physicochemical. In short, it runs like this: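 Reversed-phase C18 HPLC at 43° C, per EEC Directive 79/831 Annex V.A8, acid range: 0.1% aqueous phosphoric acid with linear 10–90% acetonitrile gradient. logP derived from retention time by linear interpolation between calibrating unbranched alkan-2-ones (C3–C16) of known logP.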

The test system of data set [7] is caterpillars of the army worm (Spodoptera exigua). The data set can be described thus: Spodoptera exigua test. The class given is in vivo. The procedure:
as §1, with “amounts” for “amount”, “and” for “and the stated amount of”, “exigua)” for “frugiperda)”

In data set [8] the test system is larvae of the mustard beetle (Phaedon cochleariae). The data set can be described thus: Phaedon test (spray treatment). The format is in vivo. In short, it runs like this: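 Chinese cabbage leaf disks sprayed with compound diluted in emulsifier-containing water, dried, then infested with mustard beetle larvae. After a set period, mortality scored in %: 100% all larvae dead, 0% none dead.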

Where [9] appears, read: 500 ppm, leaf dip, Brassica oleracea.

As for `O=C1C(O)=C(c2ccccc2Cl)C(=O)N1C1CCCC(C(F)(F)F)C1` (centres unmarked) [Example 214], the “activity in the Phaedon larvae test” value in data set [1] is listed as “good activity”. Moreover, the “Kill rate in % after 7 d” value was found to be 100% in data set [1] (setting [9]); 100% in data set [2] (setting [9]); 100% in data set [3] (500 ppm, leaf dip); 100% in data set [5] (500 ppm, leaf dip, resistant strain); 100% in data set [7] (500 ppm, leaf dip); 100% in data set [8] (100 g/ha, spray, Brassica pekinensis disks). The “activity in the Spodoptera frugiperda test (leaf dip)” value in data set [2] is recorded as “good activity”. Further, the “activity in the Plutella test” value in data set [3] is “good activity”. The “Kill rate in % after 5 d” value in data set [4] is on record as 90%. Further, in data set [5], the “activity in the Plutella test, resistant strain” value is “good activity”. Moreover, the logP entry in data set [6] was “logP = 3.53^a)”. In addition, in data set [7], the “activity in the Spodoptera exigua test” value was “good activity”. In addition, the “activity in the Phaedon test (spray treatment)” value in data set [8] was “good activity”.

Values taken from US20090099192A1, “Substituted 1H-pyrrole-2,5-diones” (Bayer CropScience AG, priority 2004, published 2009).
